The term IC50 denotes the concentration at which inhibition is half-maximal.

In US20220324835A1 (Nurix Therapeutics, Inc., priority 2018, published 2022) one finds fold induction and IC50 data, which are given here for ten compounds.

The test system of assay [1] is T-cell. Put plainly: IL-2 secretion from T-cells stimulated with anti-CD3 antibody alone (Biological Example 2). The class given is cell-based, human. As to conditions: Homo sapiens, T-cell; 1 μM Cbl-b inhibitor; fold change over baseline (anti-CD3/anti-CD28 stimulated T-cells without inhibitor); read-out: IL-2 secretion Anti-CD3 stimulation.
Assay [2] has as its target T1, Cbl-b (Homo sapiens, UniProt Q13191). As to the kind of experiment: Cbl-b inhibition assay (Cbl-b activity assay, FRET, Biological Example 1; 100 mM NaCl, 60 nM Src kinase). The class given is biochemical. As to conditions: upper bound stated in text lists; read-out: IC50 values in the Cbl-b inhibition assay of Biological Example 1. An outline of the steps:
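FRET read-out: loss of signal marks inhibition. Mix = biotin-Avi-Cbl-b (N-term), Src kinase, UbcH5B-Ub(Bodipy-FL, irreversible conjugate), streptavidin-Tb, assay buffer.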

Assay [3] has as its system T-cell. Put plainly: IL-2 secretion from T-cells co-stimulated with anti-CD3 and anti-CD28 antibody (Biological Example 2). The class given is cell-based, human. As to conditions: Homo sapiens, T-cell, fold change over baseline (anti-CD3/anti-CD28 stimulated T-cells without inhibitor), read-out: IL-2 secretion Anti-CD3/Anti-CD28 stimulation; for fold induction at 0.3 µM: 0.3 μM Cbl-b inhibitor; for fold induction at 1 µM: 1 μM Cbl-b inhibitor. In short, it runs like this: (§1)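 No assay protocol given; T-cells stimulated with anti-CD3 alone or anti-CD3 plus anti-CD28, with or without Cbl-b inhibitor. Activation read as IL-2 secretion or CD25 surface staining, expressed as fold over baseline from uninhibited cells […].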

Assay [4] relates to T-cell. Put plainly: CD25 cell surface staining on T-cells co-stimulated with anti-CD3 and anti-CD28 antibody (Biological Example 2). The class given is cell-based, human. The note with it: Homo sapiens, T-cell, fold change over baseline (anti-CD3/anti-CD28 stimulated T-cells without inhibitor), read-out: CD25 staining Anti-CD3/Anti-CD28 stimulation; for fold induction at 0.3 µM: 0.3 μM Cbl-b inhibitor; for fold induction at 1 µM: 1 μM Cbl-b inhibitor. In short, it runs like this:
as §1

The target in assay [5] is T1, Cbl-b. Put plainly: Cbl-b activity assay (Cbl-b inhibition assay), TR-FRET of Cbl-b interaction with UbcH5B-Ub. The note with it: assay buffer with 100 mM NaCl, 60 nM Src kinase; read-out: Cbl-b activity IC50. The class given is biochemical. An outline of the steps: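 TR-FRET readout of Cbl-b binding to Bodipy-fluorescein N-terminally labeled Ub conjugated to UbcH5B C85K, measured with compound present. After compound incubation, 60 nM Src kinase with 1 mM ATP and 5 mM MgCl2 (final) was added for 1.5 h, then a further 1 h incubation; asterisked values used 50 mM NaCl buffer and 30 nM Src.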

The test system of assay [6] is T-cell. As to the kind of experiment: CD25 cell surface staining on T-cells stimulated with anti-CD3 antibody alone (Biological Example 2). The class given is cell-based, human. As to conditions: Homo sapiens, T-cell; 1 μM Cbl-b inhibitor; fold change over baseline (anti-CD3/anti-CD28 stimulated T-cells without inhibitor); read-out: CD25 staining Anti-CD3 stimulation.

T1 sequence (Q13191 36-427): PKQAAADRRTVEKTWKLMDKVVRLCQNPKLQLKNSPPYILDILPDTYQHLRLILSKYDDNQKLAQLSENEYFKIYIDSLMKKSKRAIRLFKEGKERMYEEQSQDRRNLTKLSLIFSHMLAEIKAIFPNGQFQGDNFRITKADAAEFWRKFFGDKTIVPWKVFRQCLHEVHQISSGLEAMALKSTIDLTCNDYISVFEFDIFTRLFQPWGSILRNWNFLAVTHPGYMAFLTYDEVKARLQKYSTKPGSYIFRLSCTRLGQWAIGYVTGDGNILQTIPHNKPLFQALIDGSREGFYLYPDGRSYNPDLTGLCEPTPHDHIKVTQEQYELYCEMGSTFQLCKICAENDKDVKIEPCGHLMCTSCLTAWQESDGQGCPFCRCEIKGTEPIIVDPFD

As for `CC(c1cc2c(c(C3CC3)n1)CN(c1cccc(C3(Cc4nncn4C)COC3)c1)C2=O)N1CC2(CC2)C1` (centres unmarked) [Example 586, 6-(1-(5-Azaspiro[2.3]hexan-5-yl)ethyl)-4-cyclopropyl-2-(3-(3-((4-methyl-4H-1,2,4-triazol-3-yl)methyl)oxetan-3-yl)phenyl)-2,3-dihydro-1H-pyrrolo[3,4-c]pyridin-1-one], the fold induction at 1 µM with T-cell [1] is less than 0.05; with T-cell [3], 2.51 to 5; with T-cell [4], 1.01 to 1.3; with T-cell [6], 0.601 to 0.8. In addition, the half-inhibitory concentration (IC50) at Cbl-b [2] is no more than 100 nM; on Cbl-b [5], less than 100 nM. In addition, the fold induction at 0.3 µM with T-cell [3] lay within 1.01 to 2.5; in the assay with T-cell [4], 1.01 to 1.3.

Regarding `CC(c1cc2c(c(C3CC3)n1)CN(c1cccc(C3(Cc4nncn4C)COC3)c1)C2=O)N1CCCCC1` (stereo not drawn) [Example 587, 4-Cyclopropyl-2-(3-(3-((4-methyl-4H-1,2,4-triazol-3-yl)methyl)oxetan-3-yl)phenyl)-6-(l-(piperidin-1-yl)ethyl)-2,3-dihydro-1H-pyrrolo[3,4-c]pyridin-1-one], the fold induction at 1 µM is greater than 0.201 with T-cell [1], greater than 7.5 in the assay on T-cell [3], greater than 1.76 with T-cell [4] and 0.601 to 0.8 in the assay on T-cell [6]. The IC50 is no more than 100 nM on Cbl-b [2] and less than 100 nM at Cbl-b [5]. The fold induction at 0.3 µM with T-cell [3] was 5 to 7.5; with T-cell [4], greater than 1.76.

With `CC1C(C(F)(F)F)CCN1Cc1cc2c(c(C(F)(F)F)c1)CN(c1cccc(C3(Cc4nncn4C)COC3)c1)C2=O` (centres unmarked) [Example 588, 6-((2-Methyl-3-(trifluoromethyl)pyrrolidin-1-yl)methyl)-2-(3-(3-((4-methyl-4H-1,2,4-triazol-3-yl)methyl)oxetan-3-yl)phenyl)-4-(trifluoromethyl)isoindolin-1-one], the fold induction at 1 µM is 0.051 to 0.1 in the assay on T-cell [1], greater than 7.5 with T-cell [3], 1.31 to 1.5 with T-cell [4] and greater than 1 in the assay on T-cell [6]. Besides, the values for the IC50 at Cbl-b [2] and at Cbl-b [5] were no more than 100 nM and less than 100 nM, respectively. The fold induction at 0.3 µM in the assay with T-cell [3] was 5 to 7.5; with T-cell [4], 1.01 to 1.3.

On to `Cn1cnnc1CC1(c2cccc(NC(=O)c3cc(CN4CCCCC4)nc(C4CC4)n3)c2)COC1` [Example 589, 2-Cyclopropyl-N-(3-(3-((4-methyl-4H-1,2,4-triazol-3-yl)methyl)oxetan-3-yl)phenyl)-6-(piperidin-1-ylmethyl)pyrimidine-4-carboxamide], for which the fold induction at 1 µM with T-cell [1] was greater than 0.201; in the assay with T-cell [3], greater than 7.5; in the assay on T-cell [4], greater than 1.76; with T-cell [6] it was greater than 1. Also, the IC50 at Cbl-b [2] was no more than 100 nM; at Cbl-b [5] it was less than 100 nM. Moreover, the fold induction at 0.3 µM is greater than 7.5 in the assay with T-cell [3] and greater than 1.76 with T-cell [4].

For the compound `CC(c1cc(C(=O)Nc2cccc(C3(Cc4nncn4C)COC3)c2)nc(C2CC2)n1)N1CCCC1` (stereo not drawn) [Example 593, 2-Cyclopropyl-N-(3-(3-((4-methyl-4H-1,2,4-triazol-3-yl)methyl)oxetan-3-yl)phenyl)-6-(l-(pyrrolidin-1-yl)ethyl)pyrimidine-4-carboxamide], the fold induction at 1 µM in the assay on T-cell [1] was greater than 0.201; in the assay on T-cell [3], greater than 7.5; in the assay on T-cell [4], 1.31 to 1.5; in the assay on T-cell [6] it was greater than 1. Moreover, the IC50 is no more than 100 nM at Cbl-b [2] and less than 100 nM on Cbl-b [5]. Moreover, the fold induction at 0.3 µM in the assay with T-cell [3] was greater than 7.5; with T-cell [4], 1.31 to 1.5.

Take `Cn1cnnc1CC1(c2cccc(N3Cc4c(cc(N5CC(C(F)F)C5)cc4C(F)(F)F)C3=O)c2)COC1` [Example 594, 6-(3-(Difluoromethyl)azetidin-1-yl)-2-(3-(3-((4-methyl-4H-1,2,4-triazol-3-yl)methyl)oxetan-3-yl)phenyl)-4-(trifluoromethyl)isoindolin-1-one]: the fold induction at 1 µM with T-cell [1] lay in the range of 0.051 to 0.1; with T-cell [3], 5 to 7.5; in the assay with T-cell [4] it was 1.01 to 1.3; in the assay with T-cell [6], 0.801 to 1. In addition, the 50% inhibitory concentration (IC50) on Cbl-b [2] is no more than 100 nM; at Cbl-b [5] it was less than 100 nM. The fold induction at 0.3 µM in the assay on T-cell [3] fell in the range of 2.51 to 5; in the assay on T-cell [4], 1.01 to 1.3.

For the compound `Cn1cnnc1CC1(c2cccc(N3Cc4c(cc(OC(F)F)cc4C(F)(F)F)C3=O)c2)COC1` [Example 595, 6-(Difluoromethoxy)-2-(3-(3-((4-methyl-4H-1,2,4-triazol-3-yl)methyl)oxetan-3-yl)phenyl)-4-(trifluoromethyl)isoindolin-1-one], the fold induction at 1 µM was in the range of 0.051 to 0.1 in the assay on T-cell [1], 5 to 7.5 with T-cell [3], 1.31 to 1.5 in the assay on T-cell [4] and 0.801 to 1 in the assay on T-cell [6]. Moreover, the IC50 at Cbl-b [2] is no more than 100 nM; on Cbl-b [5], less than 100 nM. In addition, the fold induction at 0.3 µM was 2.51 to 5 with T-cell [3] and 1.01 to 1.3 in the assay with T-cell [4].

Take `Cc1cc(C(=O)Nc2cccc(C3(Cc4nncn4C)COC3)c2)n2nccc2n1` [Example 596, 5-Methyl-N-(3-(3-((4-methyl-4H-1,2,4-triazol-3-yl)methyl)oxetan-3-yl)phenyl)pyrazolo[1,5-a]pyrimidine-7-carboxamide]: the fold induction at 1 µM with T-cell [1] is less than 0.05; in the assay on T-cell [3], 1.01 to 2.5; in the assay with T-cell [4], 1.01 to 1.3; in the assay on T-cell [6], 0.601 to 0.8. The figures for the IC50 at Cbl-b [2] and on Cbl-b [5] were no more than 300 nM and 100 to 300 nM, respectively. In addition, the results for the fold induction at 0.3 µM with T-cell [3] and in the assay with T-cell [4] were 1.01 to 2.5 and 1.01 to 1.3, respectively.

For `Cc1cc(C(=O)Nc2cccc(C3(Cc4nncn4C)COC3)c2)n2nc(C(F)(F)F)cc2n1` [Example 598, 5-Methyl-N-(3-(3-((4-methyl-4H-1,2,4-triazol-3-yl)methyl)oxetan-3-yl)phenyl)-2-(trifluoromethyl)pyrazolo[1,5-a]pyrimidine-7-carboxamide], the fold induction at 1 µM with T-cell [1] was less than 0.05; with T-cell [3], 1.01 to 2.5; in the assay on T-cell [4], 1.01 to 1.3; with T-cell [6], 0.601 to 0.8. Besides, the half-maximal inhibitory concentration (IC50) on Cbl-b [2] is no more than 300 nM; at Cbl-b [5], 100 to 300 nM. Also, the figures for the fold induction at 0.3 µM in the assay with T-cell [3] and with T-cell [4] were 1.01 to 2.5 and 1.01 to 1.3, respectively.

Turning to `Cc1cnn2c(C(=O)Nc3cccc(C4(Cc5nncn5C)COC4)c3)cc(C(F)(F)F)nc12` [Example 599, 3-methyl-N-(3-(3-((4-methyl-4H-1,2,4-triazol-3-yl)methyl)oxetan-3-yl)phenyl)-5-(trifluoromethyl)pyrazolo[1,5-a]pyrimidine-7-carboxamide], the fold induction at 1 µM in the assay with T-cell [1] is less than 0.05; with T-cell [3], 1.01 to 2.5; with T-cell [4] it was 1.01 to 1.3; with T-cell [6], 0.601 to 0.8. Besides, the concentration for half-maximal inhibition (IC50) is no more than 1000 nM on Cbl-b [2] and 301 to 1000 nM on Cbl-b [5]. Further, the results for the fold induction at 0.3 µM with T-cell [3] and in the assay on T-cell [4] were less than 1 and 1.01 to 1.3, respectively.
